Reference: US20230000870A1, “METHODS OF TREATING CANCER IN BIOMARKER-IDENTIFIED PATIENTS WITH INHIBITORS OF CYCLIN-DEPENDENT KINASE 7 (CDK7)” (Syros Pharmaceuticals, Inc., priority 2019, published 2023)
pIC50: −log10 of the molar value.

What was measured:
HCC70 cells = test: Inhibition of proliferation of HCC70 cells (CyQUANT Direct, 72 hour); type: cell-based, human; details: read-out: Inhibition of Proliferation of HCC70 Cells (calculated IC50)
Procedure, shortened: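 Human triple-negative breast cancer cells grown in RPMI-1640 + 10% FBS at 37 °C, 5% CO2, treated with compounds from 4 μM to […] in 0.5 log steps. Proliferation over 72 h was read by CyQUANT Direct.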

A673 cells = test: Inhibition of proliferation of A673 cells (CyQUANT, 72 hour); type: cell-based, human; details: read-out: Inhibition of Proliferation of A673 Cells (calculated IC50)
Procedure, shortened: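 Human Ewing's sarcoma A673 cells in DMEM + 10% FBS + 1 mM sodium pyruvate, 37 °C, 5% CO2. Compounds in 0.5-log serial dilutions, stated range 4 μM to […], for 72 h. Anti-proliferative effect read with CyQUANT per kit directions.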

[1] = molecular target: CDK7/Cyclin H/MAT1 complex (Homo sapiens, UniProt P50613); test: CDK7 kinase inhibition assay (Caliper/LabChip EZ Reader); type: biochemical; details: CDK7/Cyclin H/MAT1 6 nM, ATP 2 mM, 35 min at 27° C.
Procedure, shortened: (§1)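 Caliper/LabChip mobility-shift kinase assays at 27° C. CDK9/Cyclin T1 8 nM with 2 μM 5-FAM-CDK9tide, 10 mM MgCl2, 15 min; CDK12/Cyclin K 50 nM with 5-FAM-CDK9tide 2 μM, 2 mM MgCl2, 3 hr; CDK2/Cyclin E1 0.5 nM with 5-FAM-CDK7tide 2 μM, 2 mM MgCl2, 35 min; CDK7 35 min.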

CDK2/Cyclin E1 complex = CDK2/Cyclin E1 complex (Homo sapiens, UniProt P24941); test: CDK2 kinase inhibition assay (Caliper/LabChip EZ Reader); type: biochemical; details: CDK2/Cyclin E1 0.5 nM, ATP 2 mM, 35 min at 27° C.
Procedure, shortened: as §1

CDK9/Cyclin T1 complex = CDK9/Cyclin T1 complex (Homo sapiens, UniProt P50750); test: CDK9 kinase inhibition assay (Caliper/LabChip EZ Reader); type: biochemical; details: CDK9/Cyclin T1 8 nM, ATP 2 mM, 15 min at 27° C.
Procedure, shortened: as §1

[2] = molecular target: T1, CDK12 (aa686-1082)/Cyclin K complex (Homo sapiens, UniProt Q9NYV4); test: CDK12 kinase inhibition assay (Caliper/LabChip EZ Reader); type: biochemical; details: CDK12 (aa686-1082)/Cyclin K 50 nM, ATP 2 mM, 3 hr at 27° C.
T1 construct: CDK12 (aa686-1082)/Cyclin K complex
Procedure, shortened: as §1

CDK7/Cyclin H/MAT1 complex, sequence (P50613 whole entry): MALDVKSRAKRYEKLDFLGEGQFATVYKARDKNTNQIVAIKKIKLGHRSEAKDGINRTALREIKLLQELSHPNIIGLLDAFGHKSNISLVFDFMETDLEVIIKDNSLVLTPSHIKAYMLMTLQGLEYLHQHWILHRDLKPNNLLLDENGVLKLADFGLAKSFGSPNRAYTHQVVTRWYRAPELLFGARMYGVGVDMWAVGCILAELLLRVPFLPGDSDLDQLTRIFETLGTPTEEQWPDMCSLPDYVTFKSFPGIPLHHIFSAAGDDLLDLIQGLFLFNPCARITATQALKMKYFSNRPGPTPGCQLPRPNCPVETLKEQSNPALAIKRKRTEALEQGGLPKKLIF
CDK7/Cyclin H/MAT1 complex, sequence (P51946 whole entry partner): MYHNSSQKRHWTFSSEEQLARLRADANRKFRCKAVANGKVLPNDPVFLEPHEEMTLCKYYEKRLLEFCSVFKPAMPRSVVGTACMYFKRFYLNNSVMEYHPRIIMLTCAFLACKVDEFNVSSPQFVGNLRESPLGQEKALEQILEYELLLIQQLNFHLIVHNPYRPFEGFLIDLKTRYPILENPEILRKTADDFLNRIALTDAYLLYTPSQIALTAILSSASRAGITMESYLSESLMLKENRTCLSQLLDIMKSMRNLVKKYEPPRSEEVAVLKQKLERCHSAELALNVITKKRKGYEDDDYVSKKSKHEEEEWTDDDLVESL
CDK7/Cyclin H/MAT1 complex, sequence (P51948 whole entry partner): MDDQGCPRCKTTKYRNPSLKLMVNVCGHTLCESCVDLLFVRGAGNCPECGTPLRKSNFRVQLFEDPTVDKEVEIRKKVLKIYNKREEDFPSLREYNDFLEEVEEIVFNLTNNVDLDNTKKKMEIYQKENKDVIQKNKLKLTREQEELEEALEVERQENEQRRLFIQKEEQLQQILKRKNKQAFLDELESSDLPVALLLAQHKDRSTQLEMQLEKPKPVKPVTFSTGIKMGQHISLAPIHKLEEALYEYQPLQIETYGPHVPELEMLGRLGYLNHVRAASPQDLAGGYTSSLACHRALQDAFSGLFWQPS
T1 sequence (Q9NYV4 686-1082): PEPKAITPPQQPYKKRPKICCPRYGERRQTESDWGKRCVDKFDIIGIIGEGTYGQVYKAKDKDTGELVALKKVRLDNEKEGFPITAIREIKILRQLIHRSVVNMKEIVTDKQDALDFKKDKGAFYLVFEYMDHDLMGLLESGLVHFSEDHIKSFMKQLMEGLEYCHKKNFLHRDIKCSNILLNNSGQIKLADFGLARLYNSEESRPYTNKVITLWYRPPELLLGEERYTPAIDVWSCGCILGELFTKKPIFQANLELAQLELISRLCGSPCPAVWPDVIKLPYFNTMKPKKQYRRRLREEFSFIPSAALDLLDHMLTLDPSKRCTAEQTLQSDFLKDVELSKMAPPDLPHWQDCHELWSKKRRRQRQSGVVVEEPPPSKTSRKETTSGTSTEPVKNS
T1 sequence (O75909 whole entry partner, the tested form may be a part): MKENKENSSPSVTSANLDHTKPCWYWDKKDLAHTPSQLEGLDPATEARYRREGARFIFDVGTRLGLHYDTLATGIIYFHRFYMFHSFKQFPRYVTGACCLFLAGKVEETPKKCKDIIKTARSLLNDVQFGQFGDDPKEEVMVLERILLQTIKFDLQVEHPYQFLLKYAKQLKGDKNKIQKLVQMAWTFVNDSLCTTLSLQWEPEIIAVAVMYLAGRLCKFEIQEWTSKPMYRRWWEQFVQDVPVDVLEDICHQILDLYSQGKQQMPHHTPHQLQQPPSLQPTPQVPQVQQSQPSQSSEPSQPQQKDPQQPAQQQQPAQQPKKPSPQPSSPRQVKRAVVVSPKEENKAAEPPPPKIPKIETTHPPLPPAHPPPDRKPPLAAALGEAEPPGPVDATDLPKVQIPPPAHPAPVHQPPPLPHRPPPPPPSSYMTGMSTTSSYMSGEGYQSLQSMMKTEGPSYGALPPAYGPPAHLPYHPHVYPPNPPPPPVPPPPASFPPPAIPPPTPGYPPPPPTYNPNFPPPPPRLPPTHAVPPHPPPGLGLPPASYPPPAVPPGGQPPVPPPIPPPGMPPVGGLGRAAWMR
CDK9/Cyclin T1 complex, sequence (P50750 whole entry): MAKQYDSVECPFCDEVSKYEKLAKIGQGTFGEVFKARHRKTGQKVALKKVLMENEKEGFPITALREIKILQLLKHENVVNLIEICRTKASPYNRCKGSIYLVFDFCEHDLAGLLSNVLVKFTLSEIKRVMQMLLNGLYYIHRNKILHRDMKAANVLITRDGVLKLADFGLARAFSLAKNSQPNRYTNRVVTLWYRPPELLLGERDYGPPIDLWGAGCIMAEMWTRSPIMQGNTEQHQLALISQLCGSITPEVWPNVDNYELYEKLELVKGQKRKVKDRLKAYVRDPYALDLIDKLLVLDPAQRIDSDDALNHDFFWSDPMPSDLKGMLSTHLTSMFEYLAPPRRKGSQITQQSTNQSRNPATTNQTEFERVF
CDK9/Cyclin T1 complex, sequence (O60563 whole entry partner): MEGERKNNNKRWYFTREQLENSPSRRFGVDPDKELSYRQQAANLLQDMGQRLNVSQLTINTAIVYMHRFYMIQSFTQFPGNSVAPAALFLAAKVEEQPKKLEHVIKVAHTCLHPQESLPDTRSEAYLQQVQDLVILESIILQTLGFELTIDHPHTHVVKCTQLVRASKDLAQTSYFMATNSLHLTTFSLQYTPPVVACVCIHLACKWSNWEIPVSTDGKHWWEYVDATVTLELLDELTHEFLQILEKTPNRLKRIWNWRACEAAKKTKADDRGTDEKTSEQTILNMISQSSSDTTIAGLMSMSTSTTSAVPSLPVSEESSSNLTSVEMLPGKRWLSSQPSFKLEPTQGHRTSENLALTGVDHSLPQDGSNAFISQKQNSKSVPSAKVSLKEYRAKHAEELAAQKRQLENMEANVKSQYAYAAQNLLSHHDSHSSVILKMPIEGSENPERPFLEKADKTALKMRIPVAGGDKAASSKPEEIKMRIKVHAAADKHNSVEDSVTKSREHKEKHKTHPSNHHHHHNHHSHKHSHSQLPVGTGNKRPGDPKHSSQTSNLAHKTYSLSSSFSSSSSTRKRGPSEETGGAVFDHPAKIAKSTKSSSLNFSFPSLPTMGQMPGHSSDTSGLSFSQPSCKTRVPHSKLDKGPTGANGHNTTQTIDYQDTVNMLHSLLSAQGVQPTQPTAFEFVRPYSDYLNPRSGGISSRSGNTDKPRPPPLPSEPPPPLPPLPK

SMILES	pIC50 (HCC70 cells)	pIC50 (A673 cells)	pIC50 [1]	pIC50 (CDK2/Cyclin E1 complex)	pIC50 (CDK9/Cyclin T1 complex)	pIC50 [2]
CCN1CCCC(Nc2ncc(C(F)(F)F)c(-c3c[nH]c4cc(C#N)ccc34)n2)C1 (stereo not drawn) [Compound 284]	6.00 to 7.00	6.70 to 7.70	> 7.70	5.30 to 6.70	5.30 to 6.70	5.30 to 6.70
FC(F)(F)c1cnc(NC2CCCNC2)nc1-c1c[nH]c2cc(-c3cc[nH]n3)ccc12 (stereo not drawn) [Compound 291]	6.00 to 7.00	6.70 to 7.70	> 7.70	5.30 to 6.70	5.30 to 6.70	5.30 to 6.70
CNC(=O)c1cccc2c(-c3nc(N[C@H]4CCCNC4)ncc3C(F)(F)F)c[nH]c12 [Compound 173]	6.00 to 7.00	6.70 to 7.70	> 7.70	5.30 to 6.70	5.30 to 6.70	5.30 to 6.70
FC(F)(F)c1cnc(NC2CNCC(c3nnc4ccccn34)C2)nc1-c1c[nH]c2ccccc12 (stereo not drawn) [Compound 267]	> 7.00	> 7.70	6.70 to 7.70	5.30 to 6.70	5.30 to 6.70	5.30 to 6.70
COCn1cc(-c2nc(NC3CCCNC3)ncc2C(F)(F)F)c2ccc(C#N)nc21 (stereo not drawn) [Compound 283]	5.30 to 6.00	5.30 to 6.70	5.30 to 6.70	≤ 5.30	≤ 5.30	≤ 5.30
CCc1cnc(NC2CCCNC2)nc1-c1c[nH]c2nc(C#N)ccc12 (stereo not drawn) [Compound 287]	6.00 to 7.00	6.70 to 7.70	> 7.70	≤ 5.30	≤ 5.30	≤ 5.30
FC(F)(F)c1cnc(NC2CCCNC2)nc1-c1n[nH]c2ccccc12 (stereo not drawn) [Compound 103]	> 7.00	6.70 to 7.70	> 7.70	5.30 to 6.70	5.30 to 6.70	6.70 to 7.70
O=C(c1ccc2c(-c3nc(NC4CCCNC4)ncc3C(F)(F)F)c[nH]c2c1)N1CCCC1 (stereo not drawn) [Compound 278]	6.00 to 7.00	6.70 to 7.70	6.70 to 7.70	5.30 to 6.70	≤ 5.30	5.30 to 6.70
CS(=O)(=O)c1cccc2c(-c3nc(NC4CCCNC4)ncc3C(F)(F)F)c[nH]c12 (stereo not drawn) [Compound 141]	> 7.00	> 7.70	> 7.70	5.30 to 6.70	5.30 to 6.70	5.30 to 6.70
Clc1cnc(NC2CCCNC2)nc1-c1cnn2ccccc12 (stereo not drawn) [Compound 104]	6.00 to 7.00	6.70 to 7.70	6.70 to 7.70	5.30 to 6.70	5.30 to 6.70	6.70 to 7.70
O=C(c1ccc2c(-c3nc(N[C@H]4CCCNC4)ncc3C(F)(F)F)c[nH]c2c1)N1CC[C@@H](O)C1 [Compound 250]	5.30 to 6.00	5.30 to 6.70	> 7.70	5.30 to 6.70	≤ 5.30	5.30 to 6.70
CC1(C)CCC(Nc2ncc(C(F)(F)F)c(-c3c[nH]c4ccccc34)n2)CN1 (stereo not drawn) [Compound 190]	6.00 to 7.00	> 7.70	> 7.70	5.30 to 6.70	5.30 to 6.70	5.30 to 6.70
O=C1CCC(Nc2ncc(Cl)c(-c3c[nH]c4ccccc34)n2)CN1 (stereo not drawn) [Compound 159]	5.30 to 6.00	5.30 to 6.70	6.70 to 7.70	6.70 to 7.70	5.30 to 6.70	5.30 to 6.70
Fc1cccc2c(-c3nc(NC4CCCNC4)ncc3Cl)c[nH]c12 (stereo not drawn) [Compound 107]	6.00 to 7.00	> 7.70	6.70 to 7.70	5.30 to 6.70	5.30 to 6.70	6.70 to 7.70
N#Cc1ccc2c(-c3nc(NC4CCCNC4)ncc3Cl)c[nH]c2c1 (stereo not drawn) [Compound 161]	> 7.00	> 7.70	> 7.70	5.30 to 6.70	5.30 to 6.70	5.30 to 6.70
OC1CCC(c2cccc3c(-c4nc(NC5CCCNC5)ncc4C(F)(F)F)c[nH]c23)CC1 (stereo not drawn) [Compound 185]	> 7.00	> 7.70	> 7.70	6.70 to 7.70	5.30 to 6.70	5.30 to 6.70
CN1CCN(c2cccc3c(-c4nc(NC5CCCNC5)ncc4C(F)(F)F)c[nH]c23)C1=O (stereo not drawn) [Compound 176]	6.00 to 7.00	> 7.70	> 7.70	5.30 to 6.70	5.30 to 6.70	5.30 to 6.70
CCc1cnc(NC2CCCNC2)nc1-c1c[nH]c2c(S(C)(=O)=O)c(C#N)ccc12 (stereo not drawn) [Compound 263]	6.00 to 7.00	6.70 to 7.70	> 7.70	≤ 5.30	≤ 5.30	≤ 5.30
Cc1cccc2c(-c3nc(NC4CCCNC4)ncc3Cl)c[nH]c12 (stereo not drawn) [Compound 112]	> 7.00	> 7.70	> 7.70	5.30 to 6.70	5.30 to 6.70	6.70 to 7.70
Clc1cnc(NC2CCCNC2)nc1-c1c[nH]c2ncccc12 (stereo not drawn) [Compound 118]	> 7.00	6.70 to 7.70	> 7.70	5.30 to 6.70	5.30 to 6.70	6.70 to 7.70
CC1(O)CCN(C(=O)c2ccc3c(-c4nc(NC5CCCNC5)ncc4C(F)(F)F)c[nH]c3c2)C1 (stereo not drawn) [Compound 221]	6.00 to 7.00	5.30 to 6.70	> 7.70	≤ 5.30	≤ 5.30	≤ 5.30
CC1CCNCC1Nc1ncc(C(F)(F)F)c(-c2c[nH]c3ccccc23)n1 (stereo not drawn) [Compound 285]	> 7.00	> 7.70	5.30 to 6.70	≤ 5.30	≤ 5.30	≤ 5.30
Fc1ccc2[nH]cc(-c3nc(NC4CCCNC4)ncc3Cl)c2c1 (stereo not drawn) [Compound 109]	6.00 to 7.00	6.70 to 7.70	> 7.70	5.30 to 6.70	5.30 to 6.70	6.70 to 7.70
FC(F)n1ccc(-c2ccc3c(-c4nc(NC5CCCNC5)ncc4C(F)(F)F)c[nH]c3c2)n1 (stereo not drawn) [Compound 289]	6.00 to 7.00	6.70 to 7.70	6.70 to 7.70	5.30 to 6.70	5.30 to 6.70	5.30 to 6.70
Fc1cnc2[nH]cc(-c3nc(NC4CCCNC4)ncc3C(F)(F)F)c2c1 (stereo not drawn) [Compound 166]	> 7.00	> 7.70	> 7.70	6.70 to 7.70	5.30 to 6.70	5.30 to 6.70
CCS(=O)(=O)c1cccc2c(-c3nc(N[C@H]4CCCNC4)ncc3C(F)(F)F)c[nH]c12 [Compound 286]	5.30 to 6.00	5.30 to 6.70	> 7.70	5.30 to 6.70	5.30 to 6.70	5.30 to 6.70
